Measurements as given in publication PMC4467128 (Oncotarget, 2014).

Key:
HDAC4 = details: cited from earlier work
HUVEC cells = assay: MTT cell viability assay, normal HUVEC cells; type: cell-based; details: Homo sapiens, 24 h, read-out: IC50 (cell viability, toxicity)
Protocol: (§1) Two fast-growing malignant B cell lymphoma (Burkitt lymphoma) cell lines and human umbilical vein endothelial cells (HUVEC) were used. Ramos and HUVEC cells were purchased from American Type Culture Collection (Manassas, VA, USA) and BJAB cells were a kind gift from Professor Ping-Ning Hsu (National Taiwan University Hospital and National Taiwan University, College of Medicine, Taipei, Taiwan). […] All cells were maintained in humidified air containing 5% CO2 at 37°C. Cell density was maintained between 1×10^5 and 1×10^6 cell/ml and passaged every 2 to 3 days.
(§2) Cell viability was assessed by MTT assay. […] After the treatment, 100 μl of 0.5 mg/ml 3-(4,5-Dimethylthiazol-2-yl)-2,5-diphenyl-tetrazolium bromide (MTT) were added to each well and incubated at 37°C to stained cells forming an insoluble blue formazan product. After 1 h incubation, 100 μl of extraction reagent (0.1M sodium acetate buffer or DMSO) were added to each well and mix thoroughly to lyse cells. The plates were then measured at 550 nm using an enzyme-linked immunosorbent assay (ELISA) reader (Packard, Meriden, CT, USA).

[1] = system: HDAC enzyme activity in BJAB cells; assay: Cell-based HDAC fluorescence activity assay, BJAB; details: Homo sapiens, 24 h, read-out: IC50 (HDAC enzyme activity)
Protocol: (§4) After the incubation, the lysine developer in this kit was added and the mixture was incubated for another 30 min at 37°C.

[2] = Body weight of BJAB tumor bearing mice; type: in vivo; details: nude mice, 50-200 mg/kg, po, qd, 31 days
Protocol: The mice were carefully maintained and all animal procedures were in accordance with the Institutional Animal Care and Use Committee procedures and guidelines. […] Tumor size was measured twice weekly and calculated from V = 0.5 lw^2, where w = width (w) and l = length (l). At the end of study, tumors were carefully removed and frozen in liquid nitrogen for subsequent western analysis.

BJAB cells = assay: MTT cell viability assay, BJAB B-cell lymphoma cells; type: cell-based; details: Homo sapiens, 24 h, mean ± SEM, read-out: IC50 (growth inhibition)
Protocol: as §1, §2

[3] = system: HDAC enzyme activity in Ramos cells; assay: Cell-based HDAC fluorescence activity assay, Ramos; details: Homo sapiens, 24 h, read-out: IC50 (HDAC enzyme activity)
Protocol: as §4

BJAB tumors = assay: BJAB xenograft tumor growth model in nude mice; type: in vivo; details: po, qd, 31 days
Protocol: (§3) The mice were carefully maintained and all animal procedures were in accordance with the Institutional Animal Care and Use Committee procedures and guidelines. All animal experiments followed ethical standards, and protocols has been reviewed and approved by Animal Use and Management Committee of National Taiwan University (IACUC Approval No: 20100225).
In BJAB xenograft model, the male nude mice were injected subcutaneously with the same volume of BD Matrigel Matrix HC (BD bioscience, catalog 354248) and BJAB cells (2×10^7 cell/mouse) into the flank of each animal. […] Tumor size was measured twice weekly and calculated from V = 0.5 lw^2, where w = width (w) and l = length (l). At the end of study, tumors were carefully removed and frozen in liquid nitrogen for subsequent western analysis.

Akt = Akt (Homo sapiens, UniProt P31749); assay: Enzyme-based Akt kinase activity assay (Kinome Diversity Screen, ELISA quantitation); type: biochemical; details: crosstide substrate
Protocol: In briefly, Akt activity was assayed using human recombinant insect Sf21 cells for Akt kinase source and crosstide peptide ([…], 15 μg/mL) as a substrate. Cell lysate was incubated with kinase assay buffer (50 mM HEPES pH 7.4, 10 mM MgCl2, 0.2 mM Na3VO4, and 1 mM DTT) for 60 min at 25°C, and analyzed by ELISA quantitation of Crosstide-P.

[4] = system: p-Akt (S473) in BJAB cells; assay: Cell-based ELISA for p-Akt (S473), BJAB; details: Homo sapiens, 24 h, mean ± SEM, read-out: IC50 (Akt dephosphorylation, p-Akt S473)
Protocol: After the treatment, cells were lysed with ice-cold lysis buffer mentioned above and equivalent aliquots of protein were subjected to a PathScan phospho-Akt1 (Ser473) sandwich ELISA kit (Cell Signaling Technology) following manufacture's instruction. In briefly, whole cell lysate was first half-diluted with sample diluent and added 100 μl into the well incubating overnight at 4°C. After the reaction, wells were washed 4 times with 200 μl wash buffer and then added 100 μl of Akt1 mouse detection antibody incubating 1 h at 37°C. Washed 4 times again and then added 100 μl of anti-mouse IgG HRP-linked antibody incubating 30 min at 37°C. After incubation, washed the well once again and then added 100 μl TMB substrate for color production and finally added 100 μl STOP solution. The results were measured by spectrophotometer at wavelength 450 nm.

Ramos cells [5] = assay: Ramos engraftment survival model in NOD/SCID mice; type: in vivo; details: daily oral gavage, MPT0E028 100 mg/kg, SAHA 200 mg/kg
Excerpt: as §3
In Ramos engrafment model, human B-cell lymphoma Ramos cells were resuspended at 10^7 cells/ml in culture medium at room temperature, and 2×10^6 cells were inoculated into male NOD/SCID mice via tail vein. Treatment began 1 week after engrafment. […] Survival rate was used as end point for this study.

HDAC1, 2, 6, and 8 = details: range over the four isoforms; cited from earlier work
Ramos cells [6] = assay: MTT cell viability assay, Ramos B-cell lymphoma cells; type: cell-based; details: Homo sapiens, 24 h, mean ± SEM, read-out: IC50 (growth inhibition)
Protocol: as §1, §2

Chain of Akt (P31749 whole entry): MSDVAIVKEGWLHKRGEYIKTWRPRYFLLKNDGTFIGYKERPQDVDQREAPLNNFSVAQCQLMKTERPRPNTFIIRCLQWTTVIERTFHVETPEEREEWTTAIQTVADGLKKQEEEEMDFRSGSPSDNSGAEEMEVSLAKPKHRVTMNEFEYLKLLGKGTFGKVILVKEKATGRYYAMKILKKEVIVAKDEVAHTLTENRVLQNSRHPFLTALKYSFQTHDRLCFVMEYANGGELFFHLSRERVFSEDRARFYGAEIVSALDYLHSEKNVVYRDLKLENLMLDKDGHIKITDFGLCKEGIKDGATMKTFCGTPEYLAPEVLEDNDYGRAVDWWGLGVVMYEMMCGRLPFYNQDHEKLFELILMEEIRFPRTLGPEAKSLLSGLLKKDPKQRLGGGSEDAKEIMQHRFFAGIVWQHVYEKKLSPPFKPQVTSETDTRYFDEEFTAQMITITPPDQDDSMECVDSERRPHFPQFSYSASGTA

| SMILES | effect upon HDAC4 (HDAC4) | IC50 (HUVEC cells) [µM] | IC50 [1] [µM] | Body weight difference between groups [2] | IC50 (BJAB cells) [µM] | IC50 [3] [µM] | TGI (BJAB tumors; 100 mg/kg) [%] | TGI (BJAB tumors; 200 mg/kg) [%] | IC50 (Akt) [µM] | IC50 [4] [µM] | Survival rate compared with control group (Ramos cells [5]) | IC50 (HDAC1, 2, 6, and 8) [µM] | IC50 (Ramos cells [6]) [µM] |
| --- | --- | --- | --- | --- | --- | --- | --- | --- | --- | --- | --- | --- | --- |
| O=C(C=Cc1ccc2c(c1)CCN2S(=O)(=O)c1ccccc1)NO [MPT0E028, 3-(1-Benzenesulfonyl-2,3-dihydro-1H-indol-5-yl)-N-hydroxy-acrylamide] | no effect | > 30 | 4.54 ± 1.2 | no significant difference in body weight | 1.45 ± 0.5 | 2.88 ± 1.9 | 20.8 | 40.4 | 5.78 | 5.9 ± 1.6 | significantly prolonged | 0.0295 to 2.53 | 0.65 ± 0.1 |
| O=C(CCCCCCC(=O)Nc1ccccc1)NO [SAHA, reference compound] |  |  |  |  |  |  |  | 17.9 |  | 32.9 ± 11.3 | no significant efficacy |  |  |
